In patent US20060057104A1, “Methods for stimulating tlr irf3 pathways for inducing anti-microbial, anti-inflammatory and anticancer responses” (THE Regents of the University of California Office of the …, priority 2002, published 2006):

Legend:
[1] = test system: MHV68; experiment: MHV68 viral replication assay in wild-type and IFNAR−/− BMMs (M9 western blot); type: cell-based, Murine gammaherpesvirus 68; conditions: MOI 5, 48 h, co-treatment
Description: (B) For viral replication assays, BMMs were simultaneously stimulated with PAMPs (10, 1, or 0.1 ng/ml lipid A, or 1, 0.1, or 0.01 μg/ml poly(I:C)) and infected with MHV68 using a multiplicity of infection of five. Cell lysates were harvested at 48 h postinfection and subjected to Western blotting analysis using an Ab specific to the MHV68 protein M9. Actin levels were also assayed to ensure equal loading. The data represent two independent experiments.
A129 (IFNAR-1^−/−) (Muller, U., U. Steinhoff, L. F. L. Reis, S. Hemmi, J. Pavlovic, R. M. Zinkernagel, and M. Aguet. 1994. Functional role of type I and type II interferons in antiviral defense. Science 264:1918) and B6129SF2/J wild type control mice were obtained from B&K Universal Ltd. and Jackson Laboratories, respectively. C57/B6 mice were used for all experiments not involving the A129 mice (Jackson Laboratories). Specific TLR activation was achieved using F-583 (Rd mutant) E. coli lipid A for TLR4 (Sigma), CpG oligonucleotides for TLR9 (Invitrogen) and poly I:C for TLR3 (Pharmacia). […]
Using the MHV68 protein M9 as a readout for viral load, we show in FIG. 13B that the antiviral activity of macrophage cells infected with MHV68 was abolished in the absence of IFNAR despite co-treatment with either lipid A or poly I:C. […]

[2] = test system: BMMs; experiment: Q-PCR gene expression in BMMs stimulated with TLR agonists (Example 1); type: cell-based, murine; conditions: for immediate early upregulation of IFNβ, IP10 and RANTES: BMMs, lipid A 1 ng/mL, PGN 10 μg/mL, poly I:C 1 μg/ml, CpG 100 nM, 1 hr
Description: (C) BMM's were stimulated with the following TLR-agonists: lipid A (1 ng/mL), peptidoglycan (PGN) (10 μg/mL), poly I:C (I μg/ml), or CpG (100 nM) for 30 min, and cell extracts were used for an in vitro kinase assay using GST-c-jun as a substrate (upper left), identical simulations were repeated for I hr, and RNA was harvested, and used for Q-PCR analysis.
(A) BMMs were stimulated for the indicated time points with the following TLR-agonists: lipid A (1 ng/ml), PGN (20 μg/ml), poly I:C (1 μg/ml), or CpG (100 nM), and RNA was harvested and used for Q-PCR analysis.
Murine bone marrow-derived macrophages (BMMs) were differentiated from marrow from 6-10 week old C57B/6 mice as previously described (Chin, A. I., Dempsey, P. W., Beuhn, K., Miller, J. F., Xu, Y., and Cheng, G. (2002), Nature 416, 190-194). BMMs were maintained in 1× DMEM, 10% fetal bovine serum, 1% penicillin/streptomycin, and 30% L929 conditioned medium, and purity was assayed to be 94-99% CD11b^+. The RAW 264.7 murine macrophage cell line (ATCC: TIB-71) was maintained in 1× DMEM with 10% fetal bovine serum and 1% penicillin/streptomycin. […]
RNA was isolated for both Northern blotting and quantitative real-time PCR (Q-PCR) using a standard guanidium isothiocyanate method. […] For Q-PCR, RNA was quantitated and 2 μg of RNA was used to make cDNA templates using Superscript II (Invitrogen) according the manufactuors instruction with either oligo-dT or random hexamer as primers. […]
We then investigated the TLR-specificity of gene expression in BMMs using specific agonists for TLR4 (lipid A), TLR2 (peptioglycan), TLR3 (poly I:C) and TLR9 (CpG). In order to account for differences in binding affinity and receptor expression, the concentrations of TLR ligands used for stimulation were titrated to produce roughly equivalent activation of the JNK pathway as determined by GST-c-Jun in vitro kinase assay (FIG. 2C, upper left).

[3] = test system: STAT1; conditions: lipid A 1 ng/ml, poly I:C 1 μg/ml
Description: BMMs from both wild-type and IFNAR−/− mice were stimulated with lipid A (1 ng/ml), poly I:C (1 μg/ml), CpG (100 nM), or fresh medium (M) for the indicated time periods, as described in Example 2, infra.
(A): Cell lysates were subjected to western blotting analyses to detect phosphorylated STAT1 (P-STAT1) and total STAT1.
For STAT1 immunoblotting, cells were lysed in modified RIPA buffer and 20 μg of protein were loaded per lane and separated by SDS-PAGE. Gels were transferred to nitrocellulose filters and immunoblotted using the antibody manufacturers' recommended instructions. Antibodies specific to the STAT1 or the phosphorylated forms of STAT1 were obtained from Cell Signaling Technologies and Santa Cruz Biotechnologies, respectively. The anti-MyD88 antibody was purchased from ProSci Incorporated. For detection of MHV68, equal amounts were loaded in each lane and analyzed by western blotting techniques using rabbit anti-M9. Blots were stripped and re-probed with anti-actin (Sigma) to verify equal loading.
To address this issue we stimulated IFNAR^−/− BMMs with lipid A and poly I:C and assayed for STAT1 phosphorylation.

Row | Substance | antiviral activity against MHV68 in the absence of IFNAR [1] | immediate early upregulation of IFNβ, IP10 and RANTES [2] | STAT1 activation in IFNAR−/− macrophage cells [3] | gene induction in TLR4-null BMMs ([2]; BMMs from C57BL/10ScCr mice (null mutation in TLR4 gene))
1 | poly I:C | abolished | immediate early upregulation | abolished | –
2 | lipid A | abolished | immediate early upregulation | abolished | No gene induction
